Consider two compounds from patent publication US20030109448A1, “Methods of promoting uptake and nuclear accumulation of polyamides in eukaryotic cells” (priority 2001, published 2003).

The test system of test [1] is HCT116 human colon cancer cells. Kind of test: Intracellular distribution of fluorescent-labeled polyamides by fluorescence microscopy. The test is classed as cell-based. The conditions noted are these: HCT116, overnight at 37° C. The protocol: Previously established low passage number human colon cancer HCT116 cells were cultured as monolayers and maintained at 37° C. in a humidified incubator with 5% CO2 in buffered medium consisting of RPMI 1640 (GIBCO, Life Technologies, Rockville, Md.) supplemented with 2 mM L-glutamine, 10% fetal bovine serum (GIBCO), 100 Units/ml Penicillin-Streptomycin and 25 μg/ml Gentamicin. Previously established low passage number human rheumatoid synovial fibroblasts (RSFs) were cultured in DMEM (GIBCO 11995-040) supplemented with 15% FBS, 1% glutamine, and 50 µg/ml Gentamycin.
HCT116 cells or RSF cells (8×10^5) were plated on 25-mm round glass coverslips in 30-mm wells and incubated for 24 hr to allow cells to adhere. […]
Live wet mounted cells were examined and photographed using an Olympus AX70 Microscope equipped with fluorescence optics and a Sony 3CCD color video camera. DAPI was detected using a bandpass 405±20 nm excitation filter, a 420 nm dichroic beam splitter, and a ≧450 emission filter (DAPI filter set). BODIPY and fluorescein conjugated polyamides were selectively detected using a bandpass 485±11 nm excitation filter, a 505 nm dichroic beam splitter, and a 530±15 nm emission filter (fluorescein filter set). Organelle-specific probes were detected using a 546+/−5 nm excitation filter, a 570 nm dichroic beam splitter and a 590 nm longpass emission filter (Rhodamine filter set). […]

The next test deals with RSF cells. Kind of test: Effect of P-gp inhibitors on intracellular distribution of Compound 1. The test is classed as cell-based, human.

“Also recorded” adds a separate entry of the source.

“Im-Im-Py-Py-γ-Py-Py-Py-Py-β-Ta-FITC [Compound 2]”: in test [1], the fluorescent-filled vesicles entry was “absent” and the “nuclear fluorescence (nuclear localization)” value is listed as “nuclei are brightly stained; also recorded: observed in the nuclei of the cells”.

With `COc1ccc(CCN(C)CCCC(C#N)(c2ccc(OC)c(OC)c2)C(C)C)cc1OC` (stereo not shown) [verapamil], in the test with RSF cells, the “effect on intracellular distribution of Compound 1” value is listed as “dramatic reduction in cytoplasmic fluorescence accompanied by a re-distribution of Compound 1 to the nucleus” and the “location of Compound 1 green fluorescence in presence of inhibitor” value is listed as “observed in the nuclei in the presence of verapamil”.
